Laboratory results reported in US20250154288A1, “CYTOTOXICITY TARGETING CHIMERAS FOR C-C CHEMOKINE RECEPTOR 2-EXPRESSING CELLS” (GLAXOSMITHKLINE INTELLECTUAL PROPERTY DEVELOPMENT LIMITED, priority 2022, published 2025).
Where a name gives a salt, the structure may show the parent alone.

Tests used:
[1] = biological target: Anti-cotinine antibody (SEQ ID NO: 11 / SEQ ID NO: 12); test: Binding of Anti-Cotinine Antibody to ARM Compounds measured by Surface Plasmon Resonance (SPR); set-up: species or system rabbit variable region with human IgG1 Fc domain; conditions: Biacore T200, 37° C., Kd = koff/kon, average if several runs
Method: Anti-cotinine antibodies having a heavy chain sequence of SEQ ID NO: 11 and a light chain sequence of SEQ ID NO: 12 (rabbit variable region with human IgG1 Fc domain containing a DE mutation (S239D/I332E)) were captured on one or more flow cells of a protein A sensor chip (Cytiva) using a Biacore T200 while reserving flow cell 1 as a reference. Following capture, a 3000 second wait step was included to reduce drift during compound analysis. ARM compounds of Formula (I) were then injected at 100 μL/min with 200 and 2000 second association and dissociation times. The entire experiment was run at 37° C. with running buffer containing 10 mM HEPES pH 7.4, 150 mM NaCl, 0.005% P20 and 1% DMSO. ARM compounds of Formula (I) were titrated with a top concentration of 200 nM using a 3-fold 5-point dilution series and a corresponding 5-injection buffer cycle was run for blank subtraction. Data were double referenced by subtracting the response of the reference flow cell from that of the antibody-containing flow cell and subsequently subtracting the referenced blank sensorgrams. Following compound analysis, the surface was regenerated using a 30 second injection of pH 1.5 glycine at a flow rate of 30 μL/min after which antibody was re-captured. The experiment was run using Biacore T200 control software and evaluated using Biacore T200 Evaluation software. Curves were fit with a 1:1 kinetic binding model to obtain kon(1/Ms), koff(1/s), Kd (M) determined as koff/kon, and residence time determined as 1/koff. (s).
Anti-cotinine antibody was tested for binding to ARMs compounds of Formula (I) of the invention in the above assay in or more experimental runs and the results are shown in Table 5 below. Affinity is reported as a pKd value. The pKd value is the negative log of the Kd value, wherein the Kd value is the dissociation constant measured in molar (M) as noted above. For compounds tested in more than one experimental run, the pKd value is reported as an average

[2] = test system: endogenous target monocytes of human PBMC; test: PBMC Ex Vivo Depletion Assay (human PBMC monocyte depletion flow cytometry); format: cell-based; conditions: monocyte depletion in human PBMC with anti-cotinine antibody; 18-24 hours incubation; read-out: Ex Vivo Depletion Assay pEC50 (converted)
Method: A human PBMC (peripheral blood mononuclear cells) monocyte depletion flow cytometry assay was developed to screen compounds in a 384-well plate format. This assay incorporated endogenous natural killer cells to deplete endogenous target monocytes.
To screen compounds in the human PBMC monocyte depletion flow cytometry assay, 11-point dose-response curves were made from 1 mM stocks in neat DMSO by serially diluting an ARM compound of Formula (I) four-fold into a 384-well plate row-wise. These serially diluted compounds were then stamped into a flat bottom polypropylene 384-well plate (Greiner Bio-One) at 100 nL/well. […]
After 18-24 hours incubation, 2 μL of 6.25 μg human FC block (BD Pharmingen) that was diluted in assay medium was added to the wells of the plate. […] Samples from the plate were run on BD FACS Canto II flow cytometer and data was analyzed using FlowJo software.
ARMs compounds of Formula (I) of the invention were tested for the ability to deplete monocytes in the above assay in one or more experimental runs and the results are shown in Table 3 below. […] The pEC50 value is the negative log of the EC50 value, wherein the EC50 value is the half maximal effective concentration measured in molar (M). For compounds tested in more than one experimental run, the pEC50 value is reported as an average or as the individual values measured

CO[C@@H]1COCC[C@@H]1N[C@@H]1CC[C@](CCC2CCN(C(=O)[C@H]3CC[C@H](NC(=O)CCCO[C@H]4CC[C@H](OCCNC(=O)[C@H]5CC(=O)N(C)[C@@H]5c5cccnc5)CC4)CC3)CC2)(C(=O)N2CCc3ncc(C(F)(F)F)cc3C2)C1 [Example 2, (2S,3S)—N-(2-(((1R,4S)-4-(4-(((1S,4R)-4-(4-(2-((1S,3R)-3-(((3S,4S)-3-Methoxytetrahydro-2H-pyran-4-yl)amino)-1-(3-(trifluoromethyl)-5,6,7,8-tetrahydro-1,6-naphthyridine-6-carbonyl)cyclopentyl)ethyl)piperidine-1-carbonyl)cyclohexyl)amino)-4-oxobutoxy)cyclohexyl)oxy)ethyl)-1-methyl-5-oxo-2-(pyridin-3-yl)pyrrolidine-3-carboxamide]
pKd of Antibody for ARM Compound of Formula (I) [1]: 9.2

CO[C@@H]1COCC[C@@H]1N[C@@H]1CC[C@](CCCNC(=O)[C@H]2CC[C@H](NC(=O)CCCO[C@H]3CC[C@H](OCCNC(=O)[C@H]4CC(=O)N(C)[C@@H]4c4cccnc4)CC3)CC2)(C(=O)N2CCc3ncc(C(F)(F)F)cc3C2)C1 [Example 3, (2S,3S)-N-(2-(((1R,4S)-4-(4-(((1S,4R)-4-((3-((1S,3R)-3-(((3S,4S)-3-Methoxytetrahydro-2H-pyran-4-yl)amino)-1-(3-(trifluoromethyl)-5,6,7,8-tetrahydro-1,6-naphthyridine-6-carbonyl)cyclopentyl)propyl)carbamoyl)cyclohexyl)amino)-4-oxobutoxy)cyclohexyl)oxy)ethyl)-1-methyl-5-oxo-2-(pyridin-3-yl)pyrrolidine-3-carboxamide]
pKd of Antibody for ARM Compound of Formula (I) [1]: 9.1

CO[C@@H]1COCC[C@@H]1N[C@@H]1CC[C@](CCCCNC(=O)[C@H]2CC[C@H](NC(=O)CCCO[C@H]3CC[C@H](OCCNC(=O)[C@H]4CC(=O)N(C)[C@@H]4c4cccnc4)CC3)CC2)(C(=O)N2CCc3ncc(C(F)(F)F)cc3C2)C1 [Example 7, (2S,3S)-N-(2-(((1R,4S)-4-(4-(((1S,4R)-4-((4-((1S,3R)-3-(((3S,4S)-3-Methoxytetrahydro-2H-pyran-4-yl)amino)-1-(3-(trifluoromethyl)-5,6,7,8-tetrahydro-1,6-naphthyridine-6-carbonyl)cyclopentyl)butyl)carbamoyl)cyclohexyl)amino)-4-oxobutoxy)cyclohexyl)oxy)ethyl)-1-methyl-5-oxo-2-(pyridin-3-yl)pyrrolidine-3-carboxamide]
pKd of Antibody for ARM Compound of Formula (I) [1]: 9.2

CO[C@@H]1COCC[C@@H]1N[C@@H]1CC[C@](CCNC(=O)[C@H]2CC[C@H](NC(=O)CCCO[C@H]3CC[C@H](OCCNC(=O)[C@H]4CC(=O)N(C)[C@@H]4c4cccnc4)CC3)CC2)(C(=O)N2CCc3ncc(C(F)(F)F)cc3C2)C1 [Example 8, (2S,3S)-N-(2-(((1R,4S)-4-(4-(((1R,4R)-4-((2-((1R,3R)-3-(((3S,4S)-3-Methoxytetrahydro-2H-pyran-4-yl)amino)-1-(3-(trifluoromethyl)-5,6,7,8-tetrahydro-1,6-naphthyridine-6-carbonyl)cyclopentyl)ethyl)carbamoyl)cyclohexyl)amino)-4-oxobutoxy)cyclohexyl)oxy)ethyl)-1-methyl-5-oxo-2-(pyridin-3-yl)pyrrolidine-3-carboxamide]
pKd of Antibody for ARM Compound of Formula (I) [1]: 9.1

CO[C@@H]1COCC[C@@H]1N[C@@H]1CC[C@](CCCCCNC(=O)[C@H]2CC[C@H](NC(=O)CCCO[C@H]3CC[C@H](OCCNC(=O)[C@H]4CC(=O)N(C)[C@@H]4c4cccnc4)CC3)CC2)(C(=O)N2CCc3ncc(C(F)(F)F)cc3C2)C1 [Example 9, (2S,3S)-N-(2-(((1R,4S)-4-(4-(((1S,4R)-4-((5-((1S,3R)-3-(((3S,4S)-3-Methoxytetrahydro-2H-pyran-4-yl)amino)-1-(3-(trifluoromethyl)-5,6,7,8-tetrahydro-1,6-naphthyridine-6-carbonyl)cyclopentyl)pentyl)carbamoyl)cyclohexyl)amino)-4-oxobutoxy)cyclohexyl)oxy)ethyl)-1-methyl-5-oxo-2-(pyridin-3-yl)pyrrolidine-3-carboxamide]
pKd of Antibody for ARM Compound of Formula (I) [1]: 9.2

CO[C@@H]1COCC[C@@H]1N[C@@H]1CC[C@@](C(=O)N2Cc3cc(C(F)(F)F)cnc3[C@H](NC(=O)[C@H]3CC[C@H](NC(=O)CCCO[C@H]4CC[C@H](OCCNC(=O)[C@H]5CC(=O)N(C)[C@@H]5c5cccnc5)CC4)CC3)C2)(C(C)C)C1 [Example 14, (2S,3S)-N-(2-(((1R,4S)-4-(4-(((1R,4R)-4-(((R)-6-((1S,3R)-1-isopropyl-3-(((3S,4S)-3-methoxytetrahydro-2H-pyran-4-yl)amino)cyclopentane-1-carbonyl)-3-(trifluoromethyl)-5,6,7,8-tetrahydro-1,6-naphthyridin-8-yl)carbamoyl)cyclohexyl)amino)-4-oxobutoxy)cyclohexyl)oxy)ethyl)-1-methyl-5-oxo-2-(pyridin-3-yl)pyrrolidine-3-carboxamide, 3Formic acid salt]
pKd of Antibody for ARM Compound of Formula (I) [1]: 9.0

CO[C@@H]1COCC[C@@H]1N[C@@H]1CC[C@@](C(=O)N2Cc3cc(C(F)(F)F)cnc3[C@@H](NC(=O)[C@H]3CC[C@H](NC(=O)CCCO[C@H]4CC[C@H](OCCNC(=O)[C@H]5CC(=O)N(C)[C@@H]5c5cccnc5)CC4)CC3)C2)(C(C)C)C1 [Example 15, (2S,3S)-N-(2-(((1R,4S)-4-(4-(((1S,4R)-4-(((S)-6-((1S,3R)-1-isopropyl-3-(((3S,4S)-3-methoxytetrahydro-2H-pyran-4-yl)amino)cyclopentane-1-carbonyl)-3-(trifluoromethyl)-5,6,7,8-tetrahydro-1,6-naphthyridin-8-yl)carbamoyl)cyclohexyl)amino)-4-oxobutoxy)cyclohexyl)oxy)ethyl)-1-methyl-5-oxo-2-(pyridin-3-yl)pyrrolidine-3-carboxamide]
pKd of Antibody for ARM Compound of Formula (I) [1]: 9.0

CO[C@@H]1COCC[C@@H]1N[C@@H]1CC[C@@](C(=O)N2CCc3nc(CCCCOc4cccc(C(=O)NCCOCCOCCOCCOCCOCCOCCOCCOCCOCCNC(=O)[C@H]5CC(=O)N(C)[C@@H]5c5cccnc5)c4)c(C(F)(F)F)cc3C2)(C(C)C)C1 [Example 22, (2S,3S)—N-(1-(3-(4-(6-((1S,3R)-1-Isopropyl-3-(((3S,4S)-3-methoxytetrahydro-2H-pyran-4-yl)amino)cyclopentane-1-carbonyl)-3-(trifluoromethyl)-5,6,7,8-tetrahydro-1,6-naphthyridin-2-yl)butoxy)phenyl)-1-oxo-5,8,11,14,17,20,23,26,29-nonaoxa-2-azahentriacontan-31-yl)-1-methyl-5-oxo-2-(pyridin-3-yl)pyrrolidine-3-carboxamide]
EC50 [2]: 794 pM
pKd of Antibody for ARM Compound of Formula (I) [1]: 9.3
